# Source: the supplement of paper PMC10307832
# How the values were obtained:
# Assay in all cases: relative viability (nuclei count vs DMSO), 5 days (fraction); higher = more cells survive
# Idelalisib + Foretinib = compound: CC[C@H](Nc1ncnc2[nH]cnc12)c1nc2cccc(F)c2c(=O)n1-c1ccccc1 [Idelalisib] + COc1cc2c(Oc3ccc(NC(=O)C4(C(=O)Nc5ccc(F)cc5)CC4)cc3F)ccnc2cc1OCCCN1CCOCC1 [Foretinib] (partner 0.25 µM)
# How it was run: (§1)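 Lung cancer cell lines in 1536-well plates were dosed by pin tool the day after seeding, either with one drug alone or with a fixed anchor-drug dose plus five library-drug doses (not always all listed) in √10 steps. After 5 days, cells were fixed and their nuclei stained in one step (final 0.05% Triton X-100, 1% formaldehyde, 1 ug/ml Hoechst), then counted on 4× images. Relative viability is the nuclei count in treated wells divided by that in vehicle wells. Values are medians of duplicate plates.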
# Pemetrexed + Olaparib = compound: Nc1nc2[nH]cc(CCc3ccc(C(=O)N[C@@H](CCC(=O)O)C(=O)O)cc3)c2c(=O)[nH]1 [Pemetrexed] + O=C(c1cc(Cc2n[nH]c(=O)c3ccccc23)ccc1F)N1CCN(C(=O)C2CC2)CC1 [Olaparib] (partner 8 µM)
# How it was run: as §1
# Pemetrexed + Tozasertib = compound: Nc1nc2[nH]cc(CCc3ccc(C(=O)N[C@@H](CCC(=O)O)C(=O)O)cc3)c2c(=O)[nH]1 [Pemetrexed] + Cc1cc(Nc2cc(N3CCN(C)CC3)nc(Sc3ccc(NC(=O)C4CC4)cc3)n2)n[nH]1 [Tozasertib] (partner 0.1 µM)
# How it was run: as §1
# Pemetrexed + Trametinib = compound: Nc1nc2[nH]cc(CCc3ccc(C(=O)N[C@@H](CCC(=O)O)C(=O)O)cc3)c2c(=O)[nH]1 [Pemetrexed] + CC(=O)Nc1cccc(-n2c(=O)n(C3CC3)c(=O)c3c(Nc4ccc(I)cc4F)n(C)c(=O)c(C)c32)c1 [Trametinib] (partner 0.02 µM)
# How it was run: as §1
Cell Line,relative viability (Idelalisib + Foretinib; first compound 0.04 µM),relative viability (Idelalisib + Foretinib; first compound 0.1265 µM),relative viability (Idelalisib + Foretinib; first compound 0.4 µM),relative viability (Idelalisib + Foretinib; first compound 1.265 µM),relative viability (Idelalisib + Foretinib; first compound 4 µM),relative viability (Pemetrexed + Olaparib; first compound 0.002 µM),relative viability (Pemetrexed + Olaparib; first compound 0.006325 µM),relative viability (Pemetrexed + Olaparib; first compound 0.02 µM),relative viability (Pemetrexed + Olaparib; first compound 0.06325 µM),relative viability (Pemetrexed + Olaparib; first compound 0.2 µM),relative viability (Pemetrexed + Tozasertib; first compound 0.002 µM),relative viability (Pemetrexed + Tozasertib; first compound 0.006325 µM),relative viability (Pemetrexed + Tozasertib; first compound 0.02 µM),relative viability (Pemetrexed + Tozasertib; first compound 0.06325 µM),relative viability (Pemetrexed + Tozasertib; first compound 0.2 µM),relative viability (Pemetrexed + Trametinib; first compound 0.002 µM),relative viability (Pemetrexed + Trametinib; first compound 0.006325 µM),relative viability (Pemetrexed + Trametinib; first compound 0.02 µM),relative viability (Pemetrexed + Trametinib; first compound 0.06325 µM),relative viability (Pemetrexed + Trametinib; first compound 0.2 µM)
NCI-H441,1.15,1.09,1.05,1.11,1.2,0.458,0.534,0.56,0.567,0.252,0.66,0.484,0.827,0.515,0.342,0.536,0.501,0.448,0.303,0.247
NCI-H520,0.738,0.741,0.587,0.7,0.553,0.282,0.385,0.356,0.335,0.319,0.42,0.475,0.447,0.412,0.45,0.569,0.682,0.757,0.606,0.657
CAL-12T,1.27,1.13,1.09,1.16,1.39,0.706,0.616,0.804,0.694,0.692,0.337,0.276,0.329,0.286,0.277,0.332,0.329,0.328,0.347,0.331
HCC-827,1.1,0.971,1.04,1.05,0.915,0.666,0.614,0.618,0.633,0.416,0.377,0.414,0.441,0.44,0.335,0.453,0.544,0.6,0.472,0.404
LC-2-ad,0.978,0.857,0.733,0.943,0.85,0.712,0.711,0.683,0.612,0.312,0.378,0.45,0.43,0.296,0.259,0.915,0.856,0.87,0.82,0.306
NCI-H2170,0.952,1.05,0.947,1.03,0.947,0.573,0.62,0.652,0.633,0.555,0.714,0.644,0.636,0.829,0.602,0.916,0.915,0.923,0.955,0.912
SW 1573,1.05,1.07,0.786,0.986,0.971,0.477,0.45,0.472,0.423,0.43,0.241,0.197,0.201,0.139,0.178,0.511,0.521,0.572,0.474,0.577
SK-MES-1,0.904,0.768,0.55,0.768,0.544,0.603,0.708,0.821,0.649,0.627,0.891,0.843,0.879,0.843,0.817,0.553,0.568,0.618,0.559,0.539
